Where a name gives a salt, the structure may show the parent alone.

The text below walks through data of US12473305B2, “Pyrazole boronic acid compound, pharmaceutical composition containing same, and uses thereof” (BEIJING SONGRUN PHARMACEUTICAL TECHNOLOGY CO., LTD., priority 2020, dated 2025).

Test [1] has as its system non-small cell lung cancer cell line A549. The experiment in a line: CellTiter-Glo tumor cell proliferation, A549. Type of test: cell-based, human. As to conditions: 72 h; for inhibition at 1 µM / inhibition at 10 µM: read-out: Inhibition rate A549 (%); for IC50: CellTiter-Glo. How it is done: (§1) The effect of compounds on tumor cell proliferation was detected by CellTiter-Glo method. Human melanoma cell line A375, non-small cell lung cancer cell line A549, human lung adenocarcinoma cell line H1299, colorectal cancer cell line HCT116, liver cancer cell line HepG2 and gastric cancer cell line MGC80-3 were cultured in vitro. The cells were collected after growing to the logarithmic growth phase, centrifuged at 1000 rpm for 5 min, and suspended in an appropriate amount of medium after discarding the supernatant, and the cell concentration was adjusted to 2×10^4/mL. The cell suspension was inoculated onto the 384-well cell culture plate, with 50 μL per well. After being cultured in a cell incubator (37° C., 5% CO2) for 24 h, 5 μL of drug diluted by the cell culture medium was added into each well for the treatment group. Each drug was provided in triplicate. After 72 h incubation in the incubator, 20 μL of CellTiter-Glo was added into each well, and the relative luminescence unit (RLU) was measured with Multimode Microplate Reader Varioskan Flash (Thermo Scientific, USA) after placed at 37° C. for 20 min, and compared with the RLU of the control group. SigmaPlot 10.0 software was used to calculate the inhibition rate and IC50 value.
In general terms: ATP-based viability assays read luminescence as a measure of living cells.

The test system of test [2] is colorectal cancer cell line HCT116. The experiment in a line: CellTiter-Glo tumor cell proliferation, HCT116. Format: cell-based, human. The following applies: 72 h; for inhibition at 1 µM / inhibition at 10 µM: read-out: Inhibition rate HCT116 (%); for IC50: CellTiter-Glo. How it is done:
as §1

Test [3] relates to Human melanoma cell line A375. The test is described as follows: CellTiter-Glo tumor cell proliferation, A375. Format: cell-based. As to conditions: 72 h; for inhibition at 1 µM / inhibition at 10 µM: read-out: Inhibition rate A375 (%); for IC50: CellTiter-Glo. How it is done:
as §1

For orientation: inhibition means the change of the read-out against control, counted positive when it falls. Consider `CC(C)C[C@H](NC(=O)Cn1nc(-c2ccccc2OS(=O)(=O)c2cc(Cl)ccc2Cl)cc1-c1ccccc1)B(O)O` [Compound 7, (R)-(1-(2-(3-(2-(((2,5-dichlorophenyl)sulfonyl)oxy)phenyl)-5-phenyl-1H-pyrazol-1-yl)-acetamido)-3-methylbutyl)boronic acid], for which the inhibition at 1 µM in test [1] (Homo sapiens, A549) stood at 16.5%; in test [2] (Homo sapiens, HCT-116), 3.5%; in test [3] (Homo sapiens, A-375), 3.7%. The inhibition at 10 µM is 52% in test [1] (Homo sapiens, A549); 96.6% in test [2] (Homo sapiens, HCT-116); 96% in test [3] (Homo sapiens, A-375).
The IC50 is the point on the concentration scale where inhibition reaches its midpoint. A lower IC50 goes with greater potency. In test [2] (Homo sapiens, HCT-116), `CC(C)[C@H](NC(=O)CN1NC(C)(c2cccc(OCCN3CCCCC3)c2)C=C1c1ccccc1)B(O)O` (stereo partly drawn) [Compound 34, (R)-(3-methyl-1-(2-(5-phenyl-3-(3-(2-(piperidin-1-yl)ethoxy)phenyl)-1H-pyrazol-1-yl)acetamido)isobutyl)boronic acid hydrochloride] yielded an IC50 of 891 nM.
Take `CC(C)C[C@H](NC(=O)Cn1nc(-c2ccccc2OS(=O)(=O)c2cccc(C(F)(F)F)c2)cc1-c1ccc(Br)cc1)B(O)O` [Compound 13, (R)-(1-(2-(5-(4-bromophenyl)-3-(2-(((3-(trifluoromethyl)phenyl)sulfonyl)oxy)phenyl)-1H-pyrazol-1-yl)acetamido)-3-methylbutyl)boronic acid]: the inhibition at 1 µM in test [1] (Homo sapiens, A549) is 4.5%; in test [2] (Homo sapiens, HCT-116), 8.2%; in test [3] (Homo sapiens, A-375) it was 8.1%. Moreover, the inhibition at 10 µM in test [1] (Homo sapiens, A549) was found to be 10.4%; in test [2] (Homo sapiens, HCT-116), 3.3%; in test [3] (Homo sapiens, A-375), 41.3%.
In the case of `CC(C)C[C@H](NC(=O)Cn1nc(-c2ccc(OS(=O)(=O)c3cccc(C(F)(F)F)c3)cc2)cc1-c1ccccc1)B(O)O` [Compound 12, (R)-(3-methyl-1-(2-(5-phenyl-3-(4-(((3-(trifluoromethyl)phenyl)sulfonyl)oxy)phenyl)-1H-pyrazol-1-yl)acetamido)butyl)boronic acid], the inhibition at 1 µM in test [1] (Homo sapiens, A549) is 45.5%; in test [2] (Homo sapiens, HCT-116), 45.8%; in test [3] (Homo sapiens, A-375) it was 83%. For the same molecule, the inhibition at 10 µM in test [1] (Homo sapiens, A549) is 85.3%; in test [2] (Homo sapiens, HCT-116), 96.3%; in test [3] (Homo sapiens, A-375) it was 98.7%.
In the case of `CC(C)C[C@H](NC(=O)Cn1nc(-c2ccccc2OS(=O)(=O)c2cccc(Cl)c2)cc1-c1ccccc1)B(O)O` [Compound 5, (R)-(1-(2-(3-(2-(((3-chlorophenyl)sulfonyl)oxy)phenyl)-5-phenyl-1H-pyrazol-1-yl)-acetamido)-3-methylbutyl)boronic acid], the inhibition at 1 µM stood at 10.2% in test [1] (Homo sapiens, A549); 9% in test [2] (Homo sapiens, HCT-116); 2.2% in test [3] (Homo sapiens, A-375). For the same molecule, the inhibition at 10 µM is 67.2% in test [1] (Homo sapiens, A549); 97.3% in test [2] (Homo sapiens, HCT-116); 97.9% in test [3] (Homo sapiens, A-375).
For the molecule `CC(C)C[C@H](NC(=O)Cn1nc(-c2ccccc2OS(=O)(=O)c2ccc(C(F)(F)F)cc2)cc1-c1ccccc1)B(O)O` [Compound 2, (R)-(3-methyl-1-(2-(5-phenyl-3-(2-(((4-(trifluoromethyl)phenyl)sulfonyl)oxy)phenyl)-1H-pyrazol-1-yl)acetamido)butyl)boronic acid], the inhibition at 1 µM is 15.1% in test [1] (Homo sapiens, A549); 1.4% in test [2] (Homo sapiens, HCT-116); 8.6% in test [3] (Homo sapiens, A-375). Further, the inhibition at 10 µM in test [1] (Homo sapiens, A549) was found to be 61.7%; in test [2] (Homo sapiens, HCT-116) it was 97.9%; in test [3] (Homo sapiens, A-375), 97.8%.
With `CC(C)C[C@H](NC(=O)Cn1nc(-c2cccc(O)c2)cc1-c1ccccc1)B(O)O` [Compound 27, (R)-(1-(2-(3-(3-hydroxyphenyl)-5-phenyl-1H-pyrazol-1-yl)acetamido)3-methylbutyl)boronic acid], the IC50 in test [1] (Homo sapiens, A549) was found to be 680 nM; in test [2] (Homo sapiens, HCT-116), 300 nM; in test [3] (Homo sapiens, A-375) it was 910 nM.
Consider `CC(C)C[C@H](NC(=O)Cn1nc(-c2ccccc2OS(=O)(=O)c2cccs2)cc1-c1ccccc1)B(O)O` [Compound 9, (R)-(3-methyl-1-(2-(5-phenyl-3-(2-((thiophen-2-ylsulfonyl)oxy)phenyl)-1H-pyrazol-1-yl)acetamido)butyl)boronic acid], for which the inhibition at 1 µM in test [1] (Homo sapiens, A549) was 3.6%; in test [2] (Homo sapiens, HCT-116) it was 2.9%; in test [3] (Homo sapiens, A-375), 4.6%. Moreover, the inhibition at 10 µM is 83.2% in test [1] (Homo sapiens, A549); 98.3% in test [2] (Homo sapiens, HCT-116); 98.3% in test [3] (Homo sapiens, A-375).
In the case of `CC(C)C[C@H](NC(=O)Cn1nc(-c2ccccc2OS(=O)(=O)c2cccc(C(F)(F)F)c2)cc1-c1ccc(OCc2ccccc2)cc1)B(O)O` [Compound 23, (R)-(1-(2-(5-(4-(benzyloxy)phenyl)-3-(2-(((3-(trifluoromethyl)phenyl)sulfonyl)oxy)phenyl)-1H-pyrazol-1-yl)acetamido)-3-methylbutyl)boronic acid], the inhibition at 1 µM stood at 7.4% in test [1] (Homo sapiens, A549); 2.6% in test [2] (Homo sapiens, HCT-116); 5.7% in test [3] (Homo sapiens, A-375). In addition, the inhibition at 10 µM in test [1] (Homo sapiens, A549) was found to be 63.4%; in test [2] (Homo sapiens, HCT-116), 55.6%; in test [3] (Homo sapiens, A-375), 77%.
For the molecule `CC(C)C[C@H](NC(=O)Cn1nc(-c2ccccc2OS(=O)(=O)c2ccccn2)cc1-c1ccccc1)B(O)O` [Compound 10, (R)-(1-(2-(3-(2-((pyridin-2-ylsulfonyl)oxy)phenyl)-5-phenyl-1H-pyrazol-1-yl)acetamido)-3-methylbutyl)boronic acid], the inhibition at 1 µM was 0.1% in test [1] (Homo sapiens, A549); 6.6% in test [2] (Homo sapiens, HCT-116); 1.5% in test [3] (Homo sapiens, A-375). Also, the inhibition at 10 µM in test [1] (Homo sapiens, A549) amounted to 72.9%; in test [2] (Homo sapiens, HCT-116) it was 98%; in test [3] (Homo sapiens, A-375), 98%.
Take `CC(C)C[C@H](NC(=O)Cn1nc(-c2cccc(OS(=O)(=O)c3cccc(C(F)(F)F)c3)c2)cc1-c1ccccc1)B(O)O` [Compound 28]: the IC50 is 8680 nM in test [1], 3410 nM in test [2] and 8250 nM in test [3].
On to `CC(C)C[C@H](NC(=O)Cn1nc(-c2ccccc2OS(=O)(=O)c2cccc(C(F)(F)F)c2)cc1-c1ccc(-c2ccccc2)cc1)B(O)O` [Compound 22, (R)-(1-(2-(5-([1,1′-biphenyl]-4-yl)-3-(2-(((3-(trifluoromethyl)phenyl)sulfonyl)oxy)phenyl)-1H-pyrazol-1-yl)acetamido)-3-methylbutyl)boronic acid], for which the inhibition at 1 µM was 3.7% in test [1] (Homo sapiens, A549); 3.9% in test [2] (Homo sapiens, HCT-116); 10.9% in test [3] (Homo sapiens, A-375). The inhibition at 10 µM in test [1] (Homo sapiens, A549) was 16.1%; in test [2] (Homo sapiens, HCT-116), 18.1%; in test [3] (Homo sapiens, A-375), 39.1%.
Consider `CC(C)C[C@H](NC(=O)Cn1nc(-c2ccccc2OS(=O)(=O)c2cccc(C(F)(F)F)c2)cc1-c1ccco1)B(O)O` [Compound 24, (R)-(1-(2-(5-(furan-2-yl)-3-(2-(((3-(trifluoromethyl)phenyl)sulfonyl)oxy)phenyl)-1H-pyrazol-1-yl)acetamido)-3-methylbutyl)boronic acid], for which the inhibition at 1 µM in test [1] (Homo sapiens, A549) stood at 1.9%; in test [2] (Homo sapiens, HCT-116), 4.9%; in test [3] (Homo sapiens, A-375), 14.9%. Besides, the inhibition at 10 µM in test [1] (Homo sapiens, A549) was determined as 66.7%; in test [2] (Homo sapiens, HCT-116), 97.1%; in test [3] (Homo sapiens, A-375), 97%.
On to `CC(C)C[C@H](NC(=O)Cn1nc(-c2cccc(OCCN(C)C)c2)cc1-c1ccccc1)B(O)O` [Compound 29, (R)-(1-(2-(3-(3-(2-(dimethylamino)ethoxy)phenyl)-5-phenyl-1H-pyrazol-1-yl)acetamido)-3-methylbutyl)boronic acid hydrochloride], for which the IC50 in test [1] (Homo sapiens, A549) turned out to be 3640 nM; in test [2] (Homo sapiens, HCT-116), 920 nM; in test [3] (Homo sapiens, A-375), 1430 nM.
In test [2], “(R)-(3-methyl-1-(2-(3-(3-(2-(4-methylpiperazin-1-yl)ethoxy)phenyl)phenyl)-5-phenyl-1H-pyrazol-1-yl)acetamido)butyl)boronic acid hydrochloride [Compound 35]” displayed an IC50 of 281 nM.
The same measure, in the same setting: in the case of “(R)-(1-(2-(3-(N,N-diethylethoxy)phenyl)-5-phenyl-1H-pyrazol-1-yl)acetamido)isobutyl)boronic acid hydrochloride [Compound 32]” it was 427 nM.
On to `CC(C)[C@H](NC(=O)CN1NC(C)(c2cccc(OCCN3CCCC3)c2)C=C1c1ccccc1)B(O)O` (stereo partly drawn) [Compound 33, (R)-(3-methyl-1-(2-(5-phenyl-3-(3-(2-(pyrrolidin-1-yl)ethoxy)phenyl)-1H-pyrazol-1-yl)acetamido)isobutyl)boronic acid hydrochloride], for which the IC50 in test [2] (Homo sapiens, HCT-116) amounted to 925 nM.
Same read-out and setting: in the case of `CC(C)C[C@H](NC(=O)Cn1nc(-c2cccc(OCCN3CC(C)OC(C)C3)c2)cc1-c1ccccc1)B(O)O` (stereo partly drawn) [Compound 36, ((1R)-1-(2-(3-(3-(2-(2,6-dimethylmorpholino)ethoxy)phenyl)-5-phenyl-1H-pyrazol-1-yl)acetamido)-3-methylbutyl)boronic acid hydrochloride] it was 57 nM.
